From patent publication US8809536B2, “2,3-dihydrobenzo[1,4] dioxin-2-ylmethyl derivatives as alpha2C antagonists for use in the treatment of peripheric and central nervous system diseases” (Orion Corporation, priority 2007, dated 2014) come the findings set out here.

SMILES strings stand for the structures. pIC50: −log10 of the molar value.

The target in test [1] is T1, human alpha2A receptors (Homo sapiens, UniProt P08913).
T1 construct: host or cells: CHO cells, cotransfected with expression vector pCEP-Galpha16
T1 sequence (P08913 1-465): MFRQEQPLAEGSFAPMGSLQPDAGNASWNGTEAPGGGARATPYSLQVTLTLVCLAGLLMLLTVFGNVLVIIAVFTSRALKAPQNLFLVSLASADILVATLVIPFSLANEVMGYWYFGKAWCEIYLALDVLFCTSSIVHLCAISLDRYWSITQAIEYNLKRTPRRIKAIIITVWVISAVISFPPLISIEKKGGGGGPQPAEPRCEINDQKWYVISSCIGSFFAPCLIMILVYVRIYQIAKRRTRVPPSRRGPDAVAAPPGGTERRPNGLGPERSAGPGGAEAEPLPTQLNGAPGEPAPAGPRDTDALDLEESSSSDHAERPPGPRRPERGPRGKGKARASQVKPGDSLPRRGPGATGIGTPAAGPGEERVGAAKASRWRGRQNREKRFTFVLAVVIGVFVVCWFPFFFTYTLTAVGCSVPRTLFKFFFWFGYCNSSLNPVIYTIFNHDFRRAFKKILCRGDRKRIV
Nature of the test: Determination of alpha2A antagonistic activity in vitro (intracellular calcium, FLIPR Calcium 3 Assay, FLEXstation). It is filed as cell-based. The conditions noted are these: CHO cells stably transfected with human alpha2A receptor and Gα16; stimulated with 100 nM adrenaline or 200 nM noradrenaline. The protocol: (§1) Chinese hamster ovary (CHO) cells stably transfected with human alpha2A and alpha2C or rodent alpha2D receptors (University of Turku, Finland) were cotransfected with the expression vector pCEP-Gα16 (Molecular Devices, CA, USA) and CHO cells stably transfected with human adrenergic alpha2B receptors and mitochondrially targeted aequorin (Euroscreen, Belgium) were used in this experiment. The cells were maintained at 37° C. in a 5% CO2/95% air atmosphere. The cells were cultured in HAM F-12 medium supplemented with 10% FCS, 25 mM HEPES, 100 IU/ml penicillin, 100 μg/ml streptomycin, 500 μg/ml geneticin and 240 μg/ml hygromycin B. The cells were subcultured twice weekly with 0.25% trypsin and 1 mM EDTA. The subculture ratio was 1:5-1:20. The growth medium was changed every 2 or 3 days. All cell culture reagents were from Gibco. The day before the experiment the cells were plated into black-walled, clear bottom 96-well plates at a density of 30,000-45,000 cells/well.
(§2) The growth medium was removed and the cells were incubated with the test compounds and the FLIPR Calcium 3 Assay reagent (Molecular Devices, CA, USA) for 1 h at 37° C. in dark. The test compounds (concentrations in cells 100 pM-10 μM) were dissolved in Probenecid-Ringer consisting of 150 mM NaCl, 3 mM KCl, 1.2 mM MgCl2, 1 mM CaCl2, 5 mM glucose, 20 mM HEPES and 2.5 mM probenecid (pH 7.4 adjusted with 1.0 M NaOH). The osmolarity was adjusted to 322 milliosmoles with Osmostat® OM-6020 osmometer (DIC Kyoto Daiichi Kagagu Co. Ltd, Japan). […] All experiments were performed at 37° C. The test compounds dissolved in Probenecid-Ringer were applied by FLEX station at 17 s time point. […] In order to determine antagonism, the cells were stimulated either with 100 nM adrenaline or 200 nM noradrenaline and the test compounds were added to the cells at least 5 min before the experiment. Typically, there were four replicates at each concentration and seven different dose levels. For example, if the number of plates from which results were obtained was three, 84 (4*7*3) wells were thus measured to construct dose-response relationship. The samples were excited at 485 nm and emission was detected at 525 nm with a 515 nm cut-off filter. Reading time was 60 s per well and the photomultiplier sensitivity value was set to 15. The minimum fluorescence value subtracted from the maximum value for each well was used in the calculations. SOFTmax PRO version 3.2 software was used for analyzing the results. Fitting of the antagonist dose-response results was performed with the free Hill equation and the IC50 values were fitted with Michaelis-Menten equation in Sigma Plot 8.0.
(In general: A change in cytosolic calcium serves as a functional read-out for many receptors and channels.)

Test [2] concerns the target T2, human alpha2C receptors (Homo sapiens, UniProt P18825).
T2 construct: host or cells: CHO cells, cotransfected with expression vector pCEP-Galpha16
T2 sequence (P18825 1-462): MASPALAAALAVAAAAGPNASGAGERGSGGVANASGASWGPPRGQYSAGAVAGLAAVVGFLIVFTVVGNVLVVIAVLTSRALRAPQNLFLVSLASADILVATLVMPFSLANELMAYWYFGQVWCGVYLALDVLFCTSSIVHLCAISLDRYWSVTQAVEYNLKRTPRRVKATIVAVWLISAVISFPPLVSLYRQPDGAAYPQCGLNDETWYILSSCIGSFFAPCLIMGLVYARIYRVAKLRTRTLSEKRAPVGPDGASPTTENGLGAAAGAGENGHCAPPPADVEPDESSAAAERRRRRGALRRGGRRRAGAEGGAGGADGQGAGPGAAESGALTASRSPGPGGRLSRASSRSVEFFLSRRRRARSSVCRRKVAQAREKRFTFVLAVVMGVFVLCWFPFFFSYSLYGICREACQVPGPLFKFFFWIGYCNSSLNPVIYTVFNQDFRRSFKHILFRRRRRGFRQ
Nature of the test: Determination of alpha2C antagonistic activity in vitro (intracellular calcium, FLIPR Calcium 3 Assay, FLEXstation). It is filed as cell-based. The conditions noted are these: CHO cells stably transfected with human alpha2C receptor and Gα16; stimulated with 100 nM adrenaline or 200 nM noradrenaline. The protocol:
as §1, §2

Turning to `Fc1ccc(C2CCCN(C[C@H]3COc4ccccc4O3)C2)cc1` (stereo in doubt) [Example 18, (R*)-1-[(S)-1-(2,3-Dihydrobenzo[1,4]dioxin-2-yl)methyl]-3-(4-fluorophenyl)piperidine], the negative logarithm of the IC50 (pIC50) in test [1] was below 5.00; in test [2], 7.16.

Regarding `OCc1cccc(C2CCCN(C[C@H]3COc4ccccc4O3)C2)c1` (stereo in doubt) [Example 29, (3-{(R*)-1-[(S)-1-(2,3-Dihydrobenzo[1,4]dioxin-2-yl)methyl]piperidin-3-yl}phenyl)methanol], the negative-log IC50 (pIC50) in test [1] is 5.36; in test [2] it was 8.27.

As for `c1ccc(C2CCCN(CC3COc4ccccc4O3)C2)cc1` (stereo not drawn) [Example 2, 1-(2,3-Dihydrobenzo[1,4]dioxin-2-ylmethyl)-3-phenylpiperidine], the values for the negative logarithm of the IC50 (pIC50) in test [1] and in test [2] were 5.42 and 7.94, respectively.

Turning to `Oc1ccccc1C1CCCN(CC2COc3ccccc3O2)C1` (stereo not drawn) [Example 12, 2-[1-(2,3-Dihydrobenzo[1,4]dioxin-2-ylmethyl)piperidin-3-yl]phenol], the values for the pIC50 in test [1] and in test [2] were 6.43 and 7.71, respectively.

Turning to `c1ccc2c(c1)OCC(CN1CCC3CCCCC3C1)O2` (stereo not drawn) [Example 48, 2-(2,3-Dihydrobenzo[1,4]dioxin-2-ylmethyl)decahydroisoquinoline], the negative logarithm of the IC50 (pIC50) was 5.83 in test [1] and 8.13 in test [2].

Regarding `COC(C)(C)C1(C)CCCN(CC2COc3ccccc3O2)C1` (stereo not drawn) [Example 58, 1-(2,3-Dihydrobenzo[1,4]dioxin-2-ylmethyl)-3-(1-methoxy-1-methylethyl)-3-methylpiperidine], the pIC50 in test [1] is 6.11; in test [2], 8.02.

For `CC1(COS(C)(=O)=O)CCCN(CC2COc3ccccc3O2)C1` (stereo not drawn) [Example 61, Methanesulfonic acid 1-(2,3-dihydrobenzo[1,4]dioxin-2-ylmethyl)-3-methylpiperidin-3-ylmethyl ester], the negative logarithm of the IC50 (pIC50) in test [1] is 5.54; in test [2] it was 8.62.

As to `CCC1(COC)CCCN(CC2COc3ccccc3O2)C1` (stereo not drawn) [Example 63, 1-(2,3-Dihydrobenzo[1,4]dioxin-2-ylmethyl)-3-ethyl-3-methoxymethylpiperidine], the pIC50 in test [1] was 5.56; in test [2], 9.10.

Regarding `C=CCOCC1(C)CCCN(CC2COc3ccccc3O2)C1` (stereo not drawn) [Example 69, 3-Allyloxymethyl-1-(2,3-dihydrobenzo[1,4]dioxin-2-ylmethyl)-3-methyl-piperidine], the pIC50 in test [1] was 5.89; in test [2] it was 8.77.

For the compound `C=CCC1(CO)CCCN(CC2COc3ccccc3O2)C1` (stereo not drawn) [Example 71, [3-Allyl-1-(2,3-dihydrobenzo[1,4]dioxin-2-ylmethyl)piperidin-3-yl]methanol], the negative-log IC50 (pIC50) was 5.94 in test [1] and 8.96 in test [2].

Consider `C=CCC1(COC)CCCN(CC2COc3ccccc3O2)C1` (stereo not drawn) [Example 72, 3-Allyl-1-(2,3-dihydrobenzo[1,4]dioxin-2-ylmethyl)-3-methoxymethylpiperidine], for which the negative-log IC50 (pIC50) in test [1] is 6.20; in test [2], 9.05.

On to `CC1(COCC(F)(F)F)CCCN(CC2COc3ccccc3O2)C1` (stereo not drawn) [Example 74, 1-(2,3-Dihydrobenzo[1,4]dioxin-2-ylmethyl)-3-methyl-3-(2,2,2-trifluoroethoxymethyl)-piperidine], for which the negative logarithm of the IC50 (pIC50) in test [1] is 6.46; in test [2], 8.13.

Consider `C[C@]1(C(=O)O)CCCN(C[C@H]2COc3ccccc3O2)C1` [Example 86, Lithium (S)-1-[(S)-1-(2,3-dihydrobenzo[1,4]dioxin-2-yl)methyl]-3-methyl-piperidine-3-carboxylate], for which the negative-log IC50 (pIC50) in test [1] is 5.07; in test [2], 7.97.

With `C[C@]1(COCCO)CCCN(C[C@H]2COc3ccccc3O2)C1` [Example 89, 2-{(S)-1-[(S)-1-(2,3-Dihydrobenzo[1,4]dioxin-2-yl)methyl]-3-methylpiperidin-3-ylmethoxy}-ethanol D-tartrate], the pIC50 is 5.67 in test [1] and 9.22 in test [2].

As for `C[C@]1(COCC(=O)O)CCCN(C[C@H]2COc3ccccc3O2)C1` [Example 96, Sodium {(S)-1-[(S)-1-(2,3-dihydrobenzo[1,4]dioxin-2-yl)methyl]-3-methylpiperidin-3-yl-methoxy}acetate], the pIC50 in test [1] was 5.26; in test [2] it was 8.34.

The pIC50 is the negative decadic logarithm of the IC50, by convention in mol/L.
